Assay results: US12281084B2, “Acetyl-CoA synthetase 2 (ACSS2) inhibitors and methods using same” (The Wistar Institute, priority 2019, dated 2025)

Tested on: BT474 tumors
Assay: Targeted metabolomic analysis of 99 metabolites in BT474 tumors
Type: in vivo, mouse
Details: VY-3-135 vs vehicle
Description: All metabolomic experiments were performed in serum-like modified Eagle's medium (SMEM). SMEM contains 54 different nutrients that are found in the bloodstream at concentrations that are physiologically relevant to humans. SMEM was supplemented with 10% or 1% fetal bovine serum (FBS; Life Technologies). Cells were grown in normoxia (atmospheric oxygen) or hypoxia (1% oxygen) while being incubated in uniformly labeled ^13C2-acetate (0.100 mM; Cambridge Isotope Laboratories). Lengths of incubation are described in the figure legends. For extraction of metabolites from cultured cells, SMEM medium was aspirated and cells were washed once in ice-cold PBS. Metabolites were extracted by adding a solution of LC-MS grade methanol/acetonitrile/water (5:3:2) to the well. Plates were incubated at 4° C. for 5 minutes on a rocker and then the extraction solution was collected. The metabolite extract was cleared by centrifugation at 15,000×g for 10 minutes at 4° C. Supernatants were transferred to LC-MS silanized glass vials with PTFE caps and either run immediately on the LC-MS or stored at −80° C. For extraction of metabolites from tumors, tumor bearing mice were sacrificed by exsanguination under anesthesia and tumors were immediately excised and flash frozen in liquid nitrogen. Frozen tumors were weighed and then extracted at 40 mg/mL in extraction solution using a tissue homogenizer (Bullet Blender) and stainless steel beads. The metabolite extract was cleared twice by centrifugation at 15,000×g for 10 minutes at 4° C. Supernatants were transferred to LC-MS silanized glass vials with PTFE caps and either run immediately on the LC-MS or stored at −80° C.
LC-MS analysis was performed on a Q Exactive Hybrid Quadrupole-Orbitrap HF-X MS (ThermoFisher Scientific) equipped with a HESI II probe and coupled to a Vanquish Horizon UHPLC system (ThermoFisher Scientific). 0.002 ml of sample is injected and separated by HILIC chromatography on a ZIC-pHILIC 2.1-mm. Samples are separated by ammonium carbonate, 0.1% ammonium hydroxide, pH 9.2, and mobile phase B is acetonitrile. […] The relevant MS parameters were as listed: sheath gas, 40; auxiliary gas, 10; sweep gas, 1; auxiliary gas heater temperature, 350° C.; spray voltage, 3.5 kV for the positive mode and 3.2 kV for the negative mode. Capillary temperature was set at 325° C., and funnel RF level at 40. Samples were analyzed in full MS scan with polarity switching at scan range 65 to 975 m/z; 120,000 resolution; automated gain control (AGC) target of 1E6; and maximum injection time (max IT) of 100 milliseconds. Identification and quantitation of metabolites was performed using an annotated compound library and TraceFinder 4.1 software. The “M+X” nomenclature refers to the isotopolog for that given metabolite. Isotopologs are chemically identical metabolites that differ only in their number of carbon-13 atoms. For instance, “M+2 citrate” means that two of the six carbons in citrate are carbon-13 while the other four are carbon-12. “M+4 citrate” means that four of the six carbons in citrate are carbon-13 while the other two are carbon-12.
A targeted metabolomic analysis of 99 metabolites in vehicle versus VY-3-135 treated BT474 tumors was performed (FIG. 6E and Table 2).

SMILES: CCn1c(C(O)(c2ccccc2)c2ccccc2)nc2ccc(C(=O)NC[C@@H](C)O)cc21 [VY-3-135, (R)-1-ethyl-2-(hydroxydiphenylmethyl)-N-(2-hydroxypropyl)-1H-benzo[d]imidazole-6-carboxamide]
- Log2 FC (VY/Veh) 2-aminobutyrate: −0.5166
- Log2 FC (VY/Veh) 3 -hydroxybutryate: −1.001
- Log2 FC (VY/Veh) 3-phosphoglycerate: −0.5802
- Log2 FC (VY/Veh) 4-hydroxyproline: −0.725
- Log2 FC (VY/Veh) ADP: −1.452
- Log2 FC (VY/Veh) AMP: −0.6555
- Log2 FC (VY/Veh) ATP: −2.026
- Log2 FC (VY/Veh) CDP: −1.642
- Log2 FC (VY/Veh) CDP-choline: −2.603
- Log2 FC (VY/Veh) CDP-ethanolamine: −1.552
- Log2 FC (VY/Veh) CMP: −0.8199
- Log2 FC (VY/Veh) DHAP/G3P: −2.029
- Log2 FC (VY/Veh) FBP: −1.71
- Log2 FC (VY/Veh) GDP: −2.599
- Log2 FC (VY/Veh) GMP: −1.275
- Log2 FC (VY/Veh) GSH: −0.6903
- Log2 FC (VY/Veh) GSSG: 0.2094
- Log2 FC (VY/Veh) IMP: 1.067
- Log2 FC (VY/Veh) PEP: −1.207
- Log2 FC (VY/Veh) SAH: −0.3532
- Log2 FC (VY/Veh) SAM: −1.16
- Log2 FC (VY/Veh) UDP: −1.495
- Log2 FC (VY/Veh) UDP-GlcNAc: −0.8007
- Log2 FC (VY/Veh) UMP: −0.4024
- Log2 FC (VY/Veh) UTP: −2.182
- Log2 FC (VY/Veh) acetyl-aspartate: −0.7575
- Log2 FC (VY/Veh) acetyl-carnitine: −0.5449
- Log2 FC (VY/Veh) acetyl-glycine: −1.037
- Log2 FC (VY/Veh) acetyl-putrescine: −1.423
- Log2 FC (VY/Veh) adenine: 1.003
- Log2 FC (VY/Veh) adenosine: 1.879
- Log2 FC (VY/Veh) aketoglutarate: 0.9192
- Log2 FC (VY/Veh) alanine: −0.6739
- Log2 FC (VY/Veh) arginine: 0.7229
- Log2 FC (VY/Veh) arginosuccinate: −0.1741
- Log2 FC (VY/Veh) asparagine: −1.225
- Log2 FC (VY/Veh) aspartate: 0.009996
- Log2 FC (VY/Veh) betaine: −0.4739
- Log2 FC (VY/Veh) carbamoyl-asp: −0.787
- Log2 FC (VY/Veh) carnitine: −0.6768
- Log2 FC (VY/Veh) choline: −0.5304
- Log2 FC (VY/Veh) cis-aconitate: −0.2247
- Log2 FC (VY/Veh) citrate: −0.1134
- Log2 FC (VY/Veh) citrulline: −0.3937
- Log2 FC (VY/Veh) creatine: −0.5321
- Log2 FC (VY/Veh) creatinine: 0.01869
- Log2 FC (VY/Veh) cystathionine: −1.232
- Log2 FC (VY/Veh) cystine: −0.4837
- Log2 FC (VY/Veh) cytidine: 1.244
- Log2 FC (VY/Veh) cytosine: 1.232
- Log2 FC (VY/Veh) ethanolamine-P: −1.364
- Log2 FC (VY/Veh) glucose-6-P: 0.03691
- Log2 FC (VY/Veh) glucose/hexose: 0.9908
- Log2 FC (VY/Veh) glutamate: −0.5429
- Log2 FC (VY/Veh) glutamine: 0.09203
- Log2 FC (VY/Veh) glycerol: 0.1079
- Log2 FC (VY/Veh) glycerol-3-P: −0.8487
- Log2 FC (VY/Veh) glycine: −0.4034
- Log2 FC (VY/Veh) guanine: 1.969
- Log2 FC (VY/Veh) guanosine: 3.356
- Log2 FC (VY/Veh) histidine: −0.4238
- Log2 FC (VY/Veh) hypoxanthine: 0.3548
- Log2 FC (VY/Veh) isoleucine: −1.483
- Log2 FC (VY/Veh) lactate: −1.761
- Log2 FC (VY/Veh) leucine: −0.6361
- Log2 FC (VY/Veh) lysine: −1.026
- Log2 FC (VY/Veh) malate: 0.0239
- Log2 FC (VY/Veh) malonate: 0.1254
- Log2 FC (VY/Veh) methionine: −1.631
- Log2 FC (VY/Veh) methyl-lysine: −1.396
- Log2 FC (VY/Veh) myo-inositol: −0.4307
- Log2 FC (VY/Veh) niacin/nicotinate: 1.977
- Log2 FC (VY/Veh) nicotinamide: 0.1254
- Log2 FC (VY/Veh) nicotinamide N-oxide: 4.808
- Log2 FC (VY/Veh) ornithine: −0.7516
- Log2 FC (VY/Veh) pantothenate: −0.6181
- Log2 FC (VY/Veh) phenylalanine: −0.5091
- Log2 FC (VY/Veh) phosphocholine: −0.7924
- Log2 FC (VY/Veh) phosphocreatine: 0.324
- Log2 FC (VY/Veh) proline: −0.4024
- Log2 FC (VY/Veh) pyridoxine: 0.3808
- Log2 FC (VY/Veh) pyruvate: −0.8037
- Log2 FC (VY/Veh) riboflavin: −2.12
- Log2 FC (VY/Veh) ribose: −0.5026
- Log2 FC (VY/Veh) ribose-P: 0.2634
- Log2 FC (VY/Veh) sedoheptulose-P: −0.2584
- Log2 FC (VY/Veh) serine: 1.09
- Log2 FC (VY/Veh) succinate: −1.793
- Log2 FC (VY/Veh) succinyladenosine: −0.8738
- Log2 FC (VY/Veh) succinylcysteine: −0.9561
- Log2 FC (VY/Veh) succinylglutathione: −1.861
- Log2 FC (VY/Veh) taurine: 0.1159
- Log2 FC (VY/Veh) threonine: −0.9186
- Log2 FC (VY/Veh) thymidine: 2.328
- Log2 FC (VY/Veh) tryptophan: −0.2045
- Log2 FC (VY/Veh) tyrosine: −0.8432
- Log2 FC (VY/Veh) urate: −0.6288
- Log2 FC (VY/Veh) valine: −0.5942
- Log2 FC (VY/Veh) xanthine: −0.8286
